Earlier results, collected in patent US12409155B1, “Ready to use LET formulations” (QuVa Pharma, Inc., priority 2021, dated 2025).

Conditions: Handbook

In the case of O=C(O)CC(O)(CC(=O)O)C(=O)O [citric acid], the pKa2 is given as 4.76.
